Data reported in ChEMBL document CHEMBL1201862, “PubChem BioAssay data set” (2004).
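Following 48 hours of exposure in 96-well plates, responses at five concentrations were used to interpolate endpoints linearly. Abbreviation: GI50, concentration required for 50% inhibition of growth.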 The source made the active and inactive calls. Rule as the data show it: active = GI50 up to about 1.1 µM and inactive = higher.

Key:
Test in all cases: inhibition of tumour cell growth, NCI panel, 48 h
786-0 = tested on: 786-0
A498 = tested on: A498
A549 = tested on: A549
ACHN = tested on: ACHN
BT-549 = tested on: BT-549
CAKI-1 = tested on: CAKI-1
CCRF-CEM = tested on: CCRF-CEM
COLO 205 = tested on: COLO 205
EKVX = tested on: EKVX
HCC 2998 = tested on: HCC 2998
HCT-116 = tested on: HCT-116
HCT-15 = tested on: HCT-15
HOP-62 = tested on: HOP-62
HOP-92 = tested on: HOP-92
HT-29 = tested on: HT-29
Hs-578T = tested on: Hs-578T
IGROV-1 = tested on: IGROV-1
K562 = tested on: K562
KM12 = tested on: KM12
LOX IMVI = tested on: LOX IMVI
M14 = tested on: M14
MCF7 = tested on: MCF7
MDA-MB-231 = tested on: MDA-MB-231
MDA-MB-435 = tested on: MDA-MB-435
MDA-N = tested on: MDA-N
MOLT-4 = tested on: MOLT-4
Malme-3M = tested on: Malme-3M
NCI-H226 = tested on: NCI-H226
NCI-H23 = tested on: NCI-H23
NCI-H460 = tested on: NCI-H460
NCI-H522 = tested on: NCI-H522
NCI/ADR-RES = tested on: NCI/ADR-RES
OVCAR-3 = tested on: OVCAR-3
OVCAR-4 = tested on: OVCAR-4
OVCAR-5 = tested on: OVCAR-5
OVCAR-8 = tested on: OVCAR-8
PC-3 = tested on: PC-3
RPMI-8226 = tested on: RPMI-8226
RXF 393 = tested on: RXF 393
SF-268 = tested on: SF-268
SF-295 = tested on: SF-295
SF-539 = tested on: SF-539
SK-MEL-2 = tested on: SK-MEL-2
SK-MEL-5 = tested on: SK-MEL-5
SK-OV-3 = tested on: SK-OV-3
SN12C = tested on: SN12C
SNB-19 = tested on: SNB-19
SNB-75 = tested on: SNB-75
SW-620 = tested on: SW-620
T47D = tested on: T47D
TK-10 = tested on: TK-10
U-251 = tested on: U-251
UACC-257 = tested on: UACC-257
UACC-62 = tested on: UACC-62
UO-31 = tested on: UO-31
DU-145 = tested on: DU-145
HL-60 = tested on: HL-60
SK-MEL-28 = tested on: SK-MEL-28
SR = tested on: SR

Measured: GI50

CC(=O)C1=C(N=[N+]=[N-])c2cccc3cccc(c23)C1=O
15.7 µM: HCT-15
inactive: 786-0 17.1 µM | A498 28.8 µM | A549 24.5 µM | ACHN 16 µM | BT-549 20.8 µM | CAKI-1 15.3 µM | CCRF-CEM 5.73 µM | COLO 205 15.7 µM | EKVX 18.2 µM | HCC 2998 17.6 µM | HCT-116 16 µM | HOP-62 14.8 µM | HOP-92 21.7 µM | HT-29 17.6 µM | Hs-578T 29.3 µM | IGROV-1 16.1 µM | K562 8.11 µM | KM12 21.1 µM | LOX IMVI 14.7 µM | M14 12.7 µM | MCF7 10.6 µM | MDA-MB-231 11.5 µM | MDA-MB-435 20.6 µM | MDA-N 18.9 µM | MOLT-4 7.19 µM | Malme-3M 17.3 µM | NCI-H226 24.7 µM | NCI-H23 20 µM | NCI-H460 21 µM | NCI-H522 14.2 µM | NCI/ADR-RES 25.1 µM | OVCAR-3 12.2 µM | OVCAR-4 23.6 µM | OVCAR-5 16.5 µM | OVCAR-8 23.6 µM | PC-3 19.8 µM | RPMI-8226 18.5 µM | RXF 393 11.4 µM | SF-268 25.2 µM | SF-295 22.5 µM | SF-539 13.3 µM | SK-MEL-2 12.4 µM | SK-MEL-5 18.7 µM | SK-OV-3 24 µM | SN12C 16.1 µM | SNB-19 30.1 µM | SNB-75 21.8 µM | SW-620 18.3 µM | T47D 15.8 µM | TK-10 15.3 µM | U-251 19.2 µM | UACC-257 17.9 µM | UACC-62 15.2 µM | UO-31 14.6 µM

CCCC[S+]([O-])CCC(N)P(=O)(O)O (centres undefined)
> 100 µM: HCT-15
inactive: 786-0 > 100 µM | A549 > 100 µM | ACHN > 100 µM | BT-549 > 100 µM | CAKI-1 > 100 µM | CCRF-CEM > 100 µM | COLO 205 > 100 µM | DU-145 > 100 µM | EKVX > 100 µM | HCT-116 > 100 µM | HL-60 > 100 µM | HOP-62 > 100 µM | HOP-92 > 100 µM | HT-29 > 100 µM | Hs-578T > 100 µM | IGROV-1 > 100 µM | K562 > 100 µM | KM12 > 100 µM | LOX IMVI > 100 µM | M14 > 100 µM | MCF7 > 100 µM | MDA-MB-435 > 100 µM | MDA-N > 100 µM | MOLT-4 > 100 µM | Malme-3M > 100 µM | NCI-H226 > 100 µM | NCI-H23 > 100 µM | NCI-H460 > 100 µM | NCI-H522 > 100 µM | NCI/ADR-RES > 100 µM | OVCAR-3 > 100 µM | OVCAR-4 > 100 µM | OVCAR-5 > 100 µM | OVCAR-8 > 100 µM | PC-3 > 100 µM | RPMI-8226 > 100 µM | SF-268 > 100 µM | SF-295 > 100 µM | SK-MEL-28 > 100 µM | SK-MEL-2 > 100 µM | SK-MEL-5 > 100 µM | SK-OV-3 > 100 µM | SN12C > 100 µM | SNB-19 > 100 µM | SNB-75 > 100 µM | SR > 100 µM | SW-620 > 100 µM | T47D > 100 µM | TK-10 > 100 µM | U-251 > 100 µM | UACC-257 > 100 µM | UACC-62 > 100 µM | UO-31 > 100 µM
